Drawing on patent publication US10172868B2, “Substituted quinazolines for inhibiting kinase activity” (NeuPharma, Inc., priority 2013, dated 2019), this text covers inhibition and IC50 for 16 compounds.

The term inhibition denotes the change of the read-out against control, counted positive when it falls. As a reminder, the IC50 is the concentration that gives 50% inhibition.

The structures appear in SMILES notation.

One assay deals with BTK (Homo sapiens (Human), UniProt Q06187). As to the kind of experiment: Z'-LYTE kinase inhibition assay, BTK. The settings on record: for inhibition at 0.041 µM: compound at 0.041 μM, read-out: % inhibition against BTK; for IC50: read-out: IC50 against BTK. Type of assay: biochemical. In short, it runs like this: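 Z'-LYTE FRET assay with Tyr 01 peptide in 50 mM HEPES pH 7.5, 10 mM MgCl2, 1 mM EGTA, 0.01% BRIJ-35. Compounds in 1% DMSO were tested as 10-point, 3-fold titrations.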

For a further assay, the system named is H3255 cells. In words: Inhibition of cancer cell growth, MTT assay, H3255. To be noted: Homo sapiens, NCI-H3255, 72 h, read-out: IC50 in H3255 cells. (Tetrazolium assays rely on reduction of a dye to a coloured formazan, in cell work by metabolically active cells.)
Another assay has as its system A431 cells. As to the kind of experiment: cells. The settings on record: Homo sapiens, A-431, 72 h, read-out: IC50 in A431 cells.
Another assay has as its target JAK2 (Homo sapiens (Human), UniProt O60674). In words: Z'-LYTE kinase inhibition assay, JAK2. It counts as biochemical. The settings on record: compound at 0.041 μM; read-out: % inhibition against JAK2. As to the method:
Inhibitory activities of compounds against BTK, EGFR and EGFR mutants (EGFR L858R, EGFR T790M, EGFR L858R/T790M), FGFR1, FGFR2, JAK2, JAK3 and KDR were measured by Invitrogen using Z'-LYTE® Method as briefly described in the following.
Test Compounds are screened in 1% DMSO (final) in the well. For 10 point titrations, 3-fold serial dilutions are conducted from the starting concentration. All ATP Solutions are diluted to a 4× working concentration in Kinase Buffer (50 mM HEPES pH 7.5, 0.01% BRIJ-35, 10 mM MgCl2, 1 mM EGTA). Peptide/Kinase Mixtures are diluted to a 2× working concentration in the appropriate Kinase Buffers as described below.
(v) Peptide/Kinase Mixtures for Measurement of JAK2:
The 2×JAK2/Tyr 06 mixture is prepared in 50 mM HEPES pH 7.5, 0.01% BRIJ-35, 10 mM MgCl2, 1 mM EGTA. The final 10 μL Kinase Reaction consists of 0.06-0.81 ng JAK2 and 2 μM Tyr 06 in 50 mM HEPES pH 7.5, 0.01% BRIJ-35, 10 mM MgCl2, 1 mM EGTA. After the 1 hour Kinase Reaction incubation, 5 μL of a 1:64 dilution of Development Reagent A is added.
Reaction starts by 30-second shaking of mixture consisting of 2.5 μL 4× test compound, […] 2× kinase reaction mixture and 2.5 μL 4×ATP Solution on Bar-coded Corning, low volume NBS, black 384-well plate (Corning Cat. #3676). Then the mixture is incubated for 60-minute at room temperature for the kinase reaction, followed by addition of 5 μL of a 1:1024 dilution of development reagent A and 30-second plate shake. The mixture is then incubated for another 60-minute at room temperature for development reaction. Finally fluorescence is read by plate reader.

The target of another assay is FGFR1 (Homo sapiens (Human), UniProt P11362). In words: Z'-LYTE kinase inhibition assay, FGFR1. To be noted: for inhibition at 0.041 µM: compound at 0.041 μM, read-out: % inhibition against FGFR1; for IC50: read-out: IC50 against FGFR1. Type of assay: biochemical. In short, it runs like this: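 FGFR1 Z'-LYTE FRET assay with 2 μM Tyr 04 peptide in HEPES pH 7.5 buffer with MgCl2, 2 mM MnCl2 and 1 mM DTT, 1% DMSO. The kinase reaction ran 1 h at room temperature, followed by 1 h development and a fluorescence read. IC50 came from 10-point 3-fold dilution series.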

A further assay concerns H1299 cells. In words: Inhibition of cancer cell growth, MTT assay, H1299. To be noted: Homo sapiens, NCI-H1299, 72 h, read-out: IC50 in H1299 cells.
Another assay concerns the target EGFR (ErbB1) L858R (Homo sapiens (Human), UniProt P00533, L858R). In words: Z'-LYTE kinase inhibition assay, EGFR L858R. Type of assay: biochemical. To be noted: read-out: % inhibition against EGFR L858R (Compound at 1 μM). The procedure: Inhibitory activities of compounds against BTK, EGFR and EGFR mutants (EGFR L858R, EGFR T790M, EGFR L858R/T790M), FGFR1, FGFR2, JAK2, JAK3 and KDR were measured by Invitrogen using Z'-LYTE® Method as briefly described in the following. Test Compounds are screened in 1% DMSO (final) in the well. For 10 point titrations, 3-fold serial dilutions are conducted from the starting concentration. All ATP Solutions are diluted to a 4× working concentration in Kinase Buffer (50 mM HEPES pH 7.5, 0.01% BRIJ-35, 10 mM MgCl2, 1 mM EGTA). Peptide/Kinase Mixtures are diluted to a 2× working concentration in the appropriate Kinase Buffers as described below. (ii) Peptide/Kinase Mixtures for Measurement of EGFR (ErbB1) L858R: The 2×EGFR (ErbB1) L858R/[…] mixture is prepared in 50 mM HEPES pH 7.5, 0.01% BRIJ-35, 10 mM MgCl2, 4 mM MnCl2, 1 mM EGTA, 2 mM DTT. The final 10 μL Kinase Reaction consists of 0.2-1.68 ng EGFR (ErbB1) L858R and 2 μM […] in 50 mM HEPES pH 7.5. 0.01% BRIJ-35, 10 mM MgCl2. 2 mM MnCl2, 1 mM EGTA, 1 mM DTT. After the 1 hour Kinase Reaction incubation, 5 μL of a 1:64 dilution of Development Reagent B is added. Reaction starts by 30-second shaking of mixture consisting of 2.5 μL 4× test compound, […] 2× kinase reaction mixture and 2.5 μL 4×ATP Solution on Bar-coded Corning, low volume NBS, black 384-well plate (Corning Cat. #3676). Then the mixture is incubated for 60-minute at room temperature for the kinase reaction, followed by addition of 5 μL of a 1:1024 dilution of development reagent A and 30-second plate shake. The mixture is then incubated for another 60-minute at room temperature for development reaction. Finally fluorescence is read by plate reader.

Chain of JAK2 (O60674 whole entry): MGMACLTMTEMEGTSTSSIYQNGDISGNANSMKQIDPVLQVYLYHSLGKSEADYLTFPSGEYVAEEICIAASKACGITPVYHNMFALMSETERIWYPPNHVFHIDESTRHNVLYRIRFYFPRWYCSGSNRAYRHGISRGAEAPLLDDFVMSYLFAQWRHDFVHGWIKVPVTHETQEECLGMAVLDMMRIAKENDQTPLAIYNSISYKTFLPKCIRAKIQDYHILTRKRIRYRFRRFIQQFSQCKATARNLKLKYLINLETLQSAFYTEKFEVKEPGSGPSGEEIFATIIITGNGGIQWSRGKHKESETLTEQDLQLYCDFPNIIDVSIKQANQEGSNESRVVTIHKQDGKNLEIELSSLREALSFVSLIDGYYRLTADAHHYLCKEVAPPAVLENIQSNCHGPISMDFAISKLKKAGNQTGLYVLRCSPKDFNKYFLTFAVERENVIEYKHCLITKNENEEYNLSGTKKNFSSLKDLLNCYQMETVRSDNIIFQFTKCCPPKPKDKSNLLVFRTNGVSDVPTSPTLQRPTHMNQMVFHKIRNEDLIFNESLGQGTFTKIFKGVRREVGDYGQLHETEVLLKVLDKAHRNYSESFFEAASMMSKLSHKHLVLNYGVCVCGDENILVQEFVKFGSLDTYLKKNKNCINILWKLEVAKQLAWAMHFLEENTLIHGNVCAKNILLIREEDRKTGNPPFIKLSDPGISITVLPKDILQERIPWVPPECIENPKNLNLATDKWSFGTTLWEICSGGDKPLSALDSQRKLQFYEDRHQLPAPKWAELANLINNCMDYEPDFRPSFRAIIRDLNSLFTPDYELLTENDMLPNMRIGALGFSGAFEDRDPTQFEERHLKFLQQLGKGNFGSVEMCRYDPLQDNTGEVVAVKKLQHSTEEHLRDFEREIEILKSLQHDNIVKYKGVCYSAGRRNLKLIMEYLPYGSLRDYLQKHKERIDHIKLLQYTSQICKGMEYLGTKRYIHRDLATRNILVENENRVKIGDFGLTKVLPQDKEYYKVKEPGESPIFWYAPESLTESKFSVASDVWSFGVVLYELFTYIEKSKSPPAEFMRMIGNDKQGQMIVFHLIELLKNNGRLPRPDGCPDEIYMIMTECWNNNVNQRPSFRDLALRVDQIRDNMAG
Chain of BTK (Q06187 whole entry): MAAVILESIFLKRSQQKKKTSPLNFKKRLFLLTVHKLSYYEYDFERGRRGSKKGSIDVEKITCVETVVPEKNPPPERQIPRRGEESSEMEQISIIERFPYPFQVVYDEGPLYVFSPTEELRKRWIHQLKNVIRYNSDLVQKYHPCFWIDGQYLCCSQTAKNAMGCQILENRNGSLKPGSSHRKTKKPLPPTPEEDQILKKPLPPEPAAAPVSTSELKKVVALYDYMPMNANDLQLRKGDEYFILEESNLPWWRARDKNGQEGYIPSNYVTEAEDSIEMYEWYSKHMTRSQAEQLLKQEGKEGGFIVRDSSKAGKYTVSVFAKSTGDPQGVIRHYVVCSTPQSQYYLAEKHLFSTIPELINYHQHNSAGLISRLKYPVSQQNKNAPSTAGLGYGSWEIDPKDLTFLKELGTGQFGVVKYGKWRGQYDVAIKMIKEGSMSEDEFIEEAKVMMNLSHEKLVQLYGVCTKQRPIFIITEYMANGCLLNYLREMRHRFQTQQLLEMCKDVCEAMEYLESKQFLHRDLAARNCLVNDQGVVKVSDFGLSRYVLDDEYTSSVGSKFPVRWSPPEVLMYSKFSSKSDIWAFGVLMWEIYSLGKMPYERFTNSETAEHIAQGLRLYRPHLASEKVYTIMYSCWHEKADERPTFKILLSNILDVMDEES
Chain of FGFR1 (P11362 22-822): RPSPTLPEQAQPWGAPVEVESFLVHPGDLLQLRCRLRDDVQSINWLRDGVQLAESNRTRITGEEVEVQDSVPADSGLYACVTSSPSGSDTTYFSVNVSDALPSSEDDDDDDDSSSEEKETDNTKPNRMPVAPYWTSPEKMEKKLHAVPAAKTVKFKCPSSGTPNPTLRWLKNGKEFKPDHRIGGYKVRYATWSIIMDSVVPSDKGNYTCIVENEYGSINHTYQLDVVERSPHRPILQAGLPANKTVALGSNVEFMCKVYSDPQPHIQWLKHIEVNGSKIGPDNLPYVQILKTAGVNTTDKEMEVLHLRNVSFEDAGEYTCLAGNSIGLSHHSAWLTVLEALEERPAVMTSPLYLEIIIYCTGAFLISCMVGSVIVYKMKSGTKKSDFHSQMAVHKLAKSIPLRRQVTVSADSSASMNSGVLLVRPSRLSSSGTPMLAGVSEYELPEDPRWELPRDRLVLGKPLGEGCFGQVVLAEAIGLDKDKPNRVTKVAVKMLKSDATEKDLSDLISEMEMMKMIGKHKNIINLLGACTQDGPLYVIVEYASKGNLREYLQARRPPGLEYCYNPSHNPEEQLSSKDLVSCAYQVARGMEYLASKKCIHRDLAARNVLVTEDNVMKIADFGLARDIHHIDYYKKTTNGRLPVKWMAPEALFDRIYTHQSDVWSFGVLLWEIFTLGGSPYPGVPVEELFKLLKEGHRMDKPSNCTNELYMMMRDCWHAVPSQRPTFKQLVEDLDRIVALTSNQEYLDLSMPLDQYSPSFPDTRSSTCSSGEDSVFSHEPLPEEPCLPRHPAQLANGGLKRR
Chain of EGFR (ErbB1) L858R (P00533 25-1210 L858R): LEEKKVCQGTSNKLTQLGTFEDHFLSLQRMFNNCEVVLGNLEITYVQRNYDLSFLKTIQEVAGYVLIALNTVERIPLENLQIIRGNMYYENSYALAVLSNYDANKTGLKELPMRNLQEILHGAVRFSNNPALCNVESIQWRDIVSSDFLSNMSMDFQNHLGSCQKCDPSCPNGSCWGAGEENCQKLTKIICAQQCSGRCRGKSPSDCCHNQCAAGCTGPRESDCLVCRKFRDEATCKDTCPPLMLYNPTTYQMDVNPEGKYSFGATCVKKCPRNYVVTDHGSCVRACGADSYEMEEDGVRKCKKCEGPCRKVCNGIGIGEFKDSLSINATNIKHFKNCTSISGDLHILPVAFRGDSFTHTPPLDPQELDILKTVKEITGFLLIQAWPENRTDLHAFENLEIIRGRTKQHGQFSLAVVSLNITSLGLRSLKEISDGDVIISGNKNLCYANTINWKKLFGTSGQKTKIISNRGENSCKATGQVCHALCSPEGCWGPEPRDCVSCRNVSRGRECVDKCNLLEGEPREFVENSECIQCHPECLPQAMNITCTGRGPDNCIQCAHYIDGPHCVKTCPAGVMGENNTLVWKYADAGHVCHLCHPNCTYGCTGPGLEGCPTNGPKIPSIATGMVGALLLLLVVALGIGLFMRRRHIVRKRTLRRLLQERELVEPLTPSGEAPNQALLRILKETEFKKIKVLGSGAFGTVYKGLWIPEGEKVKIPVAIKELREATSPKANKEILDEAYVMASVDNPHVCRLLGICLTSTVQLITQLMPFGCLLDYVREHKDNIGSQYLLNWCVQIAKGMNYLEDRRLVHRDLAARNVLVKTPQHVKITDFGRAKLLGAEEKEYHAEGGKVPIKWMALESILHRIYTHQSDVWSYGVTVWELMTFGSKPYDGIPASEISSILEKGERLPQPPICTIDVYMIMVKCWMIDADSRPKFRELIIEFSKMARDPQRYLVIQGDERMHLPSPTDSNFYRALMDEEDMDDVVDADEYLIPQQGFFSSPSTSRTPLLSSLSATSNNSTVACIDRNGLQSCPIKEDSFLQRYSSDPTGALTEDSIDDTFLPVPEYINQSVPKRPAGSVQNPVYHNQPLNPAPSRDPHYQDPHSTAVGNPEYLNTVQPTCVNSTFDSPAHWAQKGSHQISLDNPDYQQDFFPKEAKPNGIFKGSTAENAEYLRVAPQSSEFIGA
Description for H1299 cells: Inhibition of cell growth by compounds was measured using MTT assay (Mosmann, T., Journal of Immunological Methods, 1983, 65, 55-63). Tumor cell lines were purchased from ATCC (American Type Culture Collection, Manassas, Va.). All cell lines were maintained in RPMI 1640 (Hyclone) supplemented with 10% fetal bovine serum (FBS, Hyclone), glutamine (2 mM, Hyclone), and antibiotics (penicillin 100 U/mL and streptomycin 50 μg/mL) at 37° C. in a humidified atmosphere of 5% CO2 in air. Taxol (as a positive control. Sigma) and compounds were dissolved in DMSO (Sigma), and the final concentration of DMSO in the medium was 1%. Tumor cells were plated in 96-well plates at densities of about 4000 cells/well of a 96-well plate and allowed to adhere/grow for 24 h. They were then treated with various concentrations of drug for 72 h, 3-(4,5-Dimethylthiazol-2-yl)-2,5-diphenyltetrazolium bromide (MTT, Sigma) was used to determine the number of viable cells at the time of compound addition and the number of cells remaining after 72 h compound exposure. The number of cells remaining after 72 h was compared to the number of viable cells at the time of compound addition by measuring the absorbance at 570 nm, allowing for the calculation of growth inhibition.
All concentrations of compounds were tested in triplicate and controls were averaged over 4 wells. IC50 was calculated by plotting the concentration of compound vs the percentage of inhibition in treated wells using GraphPad Prism 5.

Consider `C=CC(=O)Nc1cccc(-c2cccc3cnc(Nc4ccc(N5CCOCC5)cc4)nc23)c1` [Example C001, N-(3-(2-((4-morpholinophenyl)amino)quinazolin-8-yl)phenyl)acrylamide], for which the inhibition at 0.041 µM on BTK, on JAK2 and on FGFR1 was more than 50% in each case. For the same compound, the half-maximal inhibitory concentration (IC50) in the assay with H3255 cells, in the assay with A431 cells and in the assay on H1299 cells was more than 500 nM in each case. The inhibition at 1 µM at EGFR (ErbB1) L858R is more than 50%.

Consider `C=CC(=O)Nc1cccc(-c2cccc3cnc(Nc4ccc(N5CCOCC5)cc4OC)nc23)c1` [Example C002, N-(3-(2-((2-methoxy-4-morpholinophenyl)amino)quinazolin-8-yl)phenyl)acrylamide], for which the IC50 in the assay on H3255 cells and in the assay on A431 cells was more than 500 nM in each case. At EGFR (ErbB1) L858R, the inhibition at 1 µM is less than 50%.

As to `C=CC(=O)Nc1cccc(-c2cccc3cnc(Nc4ccc(N5CCN(C)CC5)cc4OC)nc23)c1` [Example C003, N-(3-(2-((2-methoxy-4-(4-methylpiperazin-1-yl)phenyl)amino)quinazolin-8-yl)phenyl)acrylamide], the IC50 in the assay on H3255 cells, with A431 cells and in the assay on H1299 cells was more than 500 nM each time. The inhibition at 1 µM at EGFR (ErbB1) L858R was more than 50%.

With `c1ccc(-c2cccc3cnc(Nc4ccc(N5CCOCC5)cc4)nc23)cc1` [Example C004, N-(4-morpholinophenyl)-8-phenylquinazolin-2-amine], the inhibition at 0.041 µM on BTK was less than 50%; at JAK2, more than 50%. Besides, the inhibition at 1 µM at EGFR (ErbB1) L858R is less than 50%.

In the case of `C=CC(=O)Nc1cccc(-c2nccc3c(N)nc(Nc4ccc(N5CCOCC5)cc4)nc23)c1` [Example C005, N-(3-(4-amino-2-((4-morpholinophenyl)amino)pyrido[3,4-d]pyrimidin-8-yl)phenyl)acrylamide], the values for the inhibition at 0.041 µM on BTK and on JAK2 were more than 50% and less than 50%, respectively. Moreover, the inhibition at 1 µM on EGFR (ErbB1) L858R was more than 50%.

With `Fc1ccc(Cl)cc1-c1cccc2cnc(Nc3ccc(N4CCOCC4)cc3)nc12` [Example C007, 8-(5-chloro-2-fluorophenyl)-N-(4-morpholinophenyl)quinazolin-2-amine], the inhibition at 1 µM at EGFR (ErbB1) L858R is less than 50%.

On to `Clc1cccc(-c2cccc3cnc(Nc4ccc(N5CCOCC5)cc4)nc23)c1` [Example C008, 8-(3-chlorophenyl)-N-(4-morpholinophenyl)quinazolin-2-amine], for which the inhibition at 0.041 µM at BTK was less than 50%; on JAK2, more than 50%; on FGFR1, less than 50%. Besides, the inhibition at 1 µM at EGFR (ErbB1) L858R was less than 50%.

With `Fc1cccc(-c2cccc3cnc(Nc4ccc(N5CCOCC5)cc4)nc23)c1` [Example C009, 8-(3-fluorophenyl)-N-(4-morpholinophenyl)quinazolin-2-amine], the figures for the inhibition at 0.041 µM on BTK and at JAK2 were less than 50% and more than 50%, respectively. Also, the inhibition at 1 µM on EGFR (ErbB1) L858R was less than 50%.

With `Fc1ccccc1-c1cccc2cnc(Nc3ccc(N4CCOCC4)cc3)nc12` [Example C010, 8-(2-fluorophenyl)-N-(4-morpholinophenyl)quinazolin-2-amine], the inhibition at 1 µM on EGFR (ErbB1) L858R was less than 50%.

For `Clc1ccccc1-c1cccc2cnc(Nc3ccc(N4CCOCC4)cc3)nc12` [Example C011, 8-(2-chlorophenyl)-N-(4-morpholinophenyl)quinazolin-2-amine], in the assay on A431 cells, the IC50 is more than 500 nM. For the same compound, the inhibition at 1 µM on EGFR (ErbB1) L858R is less than 50%.

On to `C=CC(=O)Nc1cccc(-c2nccc3cnc(Nc4ccc(N5CCOCC5)cc4)nc23)c1` [Example C012, N-(3-(2-((4-morpholinophenyl)amino)pyrido[3,4-d]pyrimidin-8-yl)phenyl)acrylamide], for which the values for the inhibition at 0.041 µM on BTK and on JAK2 were more than 50% and less than 50%, respectively. Further, in the assay on A431 cells, the IC50 was more than 500 nM. The inhibition at 1 µM at EGFR (ErbB1) L858R was less than 50%.

For the compound `C=CC(=O)Nc1cccc(-c2cccc3cnc(Nc4ccc(N5CCN(C)CC5)cc4)nc23)c1` [Example C021, N-(3-(2-((4-(4-methylpiperazin-1-yl)phenyl)amino)quinazolin-8-yl)phenyl)acrylamide], the inhibition at 0.041 µM on BTK, on JAK2 and on FGFR1 was more than 50% each time. In addition, the IC50 is less than 100 nM at BTK; 100 to 500 nM with H3255 cells; 100 to 500 nM with A431 cells; less than 100 nM on FGFR1; 100 to 500 nM with H1299 cells.

For the compound `C=CC(=O)Nc1cccc(-c2cccc3cnc(Nc4ccc(N5CCN(C)CC5)nc4)nc23)c1` [Example C041, N-(3-(2-((6-(4-methylpiperazin-1-yl)pyridin-3-yl)amino)quinazolin-8-yl)phenyl)acrylamide], the half-maximal inhibitory concentration (IC50) was less than 100 nM on BTK; more than 500 nM in the assay with H3255 cells; more than 500 nM in the assay with A431 cells; less than 100 nM on FGFR1; more than 500 nM in the assay with H1299 cells.

On to `C=CC(=O)Nc1cccc(-c2cccc3cnc(Nc4ccc(N5CCN(C)CC5)cc4F)nc23)c1` [Example C044, N-(3-(2-((2-fluoro-4-(4-methylpiperazin-1-yl)phenyl)amino)quinazolin-8-yl)phenyl)acrylamide], for which the 50% inhibitory concentration (IC50) is less than 100 nM on BTK, more than 500 nM with H3255 cells, more than 500 nM in the assay on A431 cells and more than 500 nM in the assay on H1299 cells. Besides, the inhibition at 0.041 µM at FGFR1 was less than 50%.

In the case of `C=CC(=O)Nc1cccc(-c2cccc3cnc(Nc4ccc(N5CCN(CCF)CC5)cc4)nc23)c1` [Example C053, N-(3-(2-((4-(4-(2-fluoroethyl)piperazin-1-yl)phenyl)amino)quinazolin-8-yl)phenyl)acrylamide], the inhibition at 0.041 µM on BTK, on JAK2 and on FGFR1 was more than 50% each time. In the assay on A431 cells, the IC50 was 100 to 500 nM.

On to `C=CC(=O)Nc1cccc(-c2cccc3cnc(Nc4ccc(N5CCN(CCO)CC5)cc4)nc23)c1` [Example C059, N-(3-(2-((4-(4-(2-hydroxyethyl)piperazin-1-yl)phenyl)amino)quinazolin-8-yl)phenyl)acrylamide], for which the IC50 at BTK is less than 100 nM; with H3255 cells, 100 to 500 nM; in the assay with A431 cells it was 100 to 500 nM; at FGFR1, less than 100 nM; in the assay on H1299 cells it was more than 500 nM. Besides, the inhibition at 0.041 µM on FGFR1 is more than 50%.
